Consider one molecule from PMC6060383, “Synthesis and pharmacological evaluation of novel isoquinoline N-sulphonylhydrazones designed as ROCK inhibitors” (Journal of Enzyme Inhibition and Medicinal Chemistry, 2018).

Data set [1] concerns MDA-MB 231 cells. Description: Cell-based scratch assay (cell migration). Details: species or system human. The settings on record: 10 or 30 μM, 24 h. Here is the method:
The human mammary gland/breast epithelial cell line MDA-MB 231 was obtained from the American Type Culture Collection (ATCC® HTB-26™) and this use was approved by the Ethics Committee for Animal Care and Use in Scientific Research from the Federal University of Rio de Janeiro. Cells were routinely grown in RPMI medium containing 10% foetal bovine serum (FBS), 1% L-glutamine and 1% penicillin-streptomycin, in a humidified 5% CO2 atmosphere at 37 °C. Cells were cultured up to 70–100% confluence and then some cultures were treated with the compounds at different concentrations for 24 or 48 h. All cell culture reagents were purchased from Invitrogen (São Paulo, Brazil).
Cells were cultured in 24-well culture plates for 24 h up to 90–100% confluence. Scratched wound lines were created with the help of a 200 μl micropipette tip. […] Images were acquired with an Olympus DP71 digital camera (Olympus, Japan) and the wound area was quantified using Fiji software (based on ImageJ, http://imageJ.nih.gov/ij/) from three different experiments.
The functions of Rho-kinase include the regulation of cellular contraction, motility, morphology, polarity, division, and gene expression. Therefore, we performed a cell-based scratch assay followed by the quantification of the wounded area to analyse whether compounds 5b (LASSBio-2020) and 11 (LASSBio-2065) altered cell migration. […]

Data set [2] deals with T1, ROCK2 human recombinant enzyme (Homo sapiens, UniProt O75116).
T1 construct: purchased EUROFINS-CEREP France (contract assay, study numbers 100033685 and 100040481); host or cells: Sf21 insect cells
Description: ROCK2 inhibition assay (Eurofins-Cerep, phosphorylation of Ulight-RRRSLLE substrate). The data set is classed as biochemical. The method, then: (§1) The analysis was performed using software developed at Cerep (Hill software) and GraphPad Prism® 5.0 (GraphPad Software, Inc., San Diego, CA) and validated through comparison with results generated using the SigmaPlot 4.0 software.
(§2) Prior to this assay, we evaluated the solubility of these compounds in water (buffer pH 7.4) to ensure that the inhibition percentages were not influenced by the precipitation of the compounds under test conditions.

Data set [3] concerns the target T2, IKK-β (Homo sapiens, UniProt O14920).
T2 sequence (O14920 1-756): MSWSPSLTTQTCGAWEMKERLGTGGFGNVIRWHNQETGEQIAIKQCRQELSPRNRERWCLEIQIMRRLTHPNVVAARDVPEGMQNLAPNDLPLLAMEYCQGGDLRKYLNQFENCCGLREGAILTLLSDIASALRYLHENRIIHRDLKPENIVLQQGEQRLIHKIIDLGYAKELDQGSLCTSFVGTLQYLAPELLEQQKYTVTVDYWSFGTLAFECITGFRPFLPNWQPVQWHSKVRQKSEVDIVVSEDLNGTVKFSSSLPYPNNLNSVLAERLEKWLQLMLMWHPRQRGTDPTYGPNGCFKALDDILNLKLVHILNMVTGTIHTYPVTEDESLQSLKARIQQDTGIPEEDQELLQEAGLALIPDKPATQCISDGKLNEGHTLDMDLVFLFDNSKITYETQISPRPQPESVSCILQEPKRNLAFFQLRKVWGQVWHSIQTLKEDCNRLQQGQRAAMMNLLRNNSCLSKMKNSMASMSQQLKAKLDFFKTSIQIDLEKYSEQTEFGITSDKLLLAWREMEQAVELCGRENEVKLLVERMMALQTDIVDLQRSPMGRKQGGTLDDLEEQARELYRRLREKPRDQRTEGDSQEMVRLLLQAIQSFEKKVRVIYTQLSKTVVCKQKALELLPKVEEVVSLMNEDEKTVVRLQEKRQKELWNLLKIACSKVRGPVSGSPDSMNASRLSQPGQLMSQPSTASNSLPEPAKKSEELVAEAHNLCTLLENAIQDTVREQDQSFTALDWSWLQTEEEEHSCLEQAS
In words: IKK-β inhibition screening. The data set is classed as biochemical. As to conditions: screening concentration of 10 μM; data not shown. An excerpt:
Furthermore, considering that 2 (LASSBio-1524) was used in the structural design of this new family of ROCK inhibitors we also investigated the ability of 5b (LASSBio-2020) and 11 (LASSBio-2065) to inhibit IKK-β.

Data set [4] can be described thus: Chemical stability study (pH 2.0 and pH 7.4 buffers). It counts as physicochemical. The settings on record: 37 °C. The method, then: Two microliters ([…]) of a concentrated solution of the compound under examination (40 mM stock solution solubilized in DMSO) and 248 μL of acid (0.2 M potassium chloride and 0.2 M HCl; pH 2.0) or neutral (phosphate dibasic, pH 7.4) buffer were added to a 2 ml Eppendorf microtube. After vortexing, the mixture was placed in a water bath at 37 °C under vigorous stirring for 0, 30, 60, 120, and 240 min. After each reaction, 248 μL of basic buffer (phosphate buffer, pH 8.4) was added to neutralize the pH of the medium in the experiments using acidic buffer. The compound was extracted using 1 ml of acetonitrile followed by vigorous vortexing and freezing of the aqueous phase (−10 °C). The organic phase was separated, filtered, and analysed using an HPLC-PDA (acetonitrile/water […], 0.05% of TFA).
Due to the possible chemical instability of the imine functional group present in the N-sulphonylhydrazone framework, the stability profiles of compounds 5b (LASSBio-2020) and 11 (LASSBio-2065) were determined. The study was conducted under two conditions, pH 2.0 and pH 7.4, to mimic the acidic stomach and the neutral plasma environments, respectively. The compounds were examined in the presence of acid (pH 2) and neutral (pH 7.4) buffers with stirring for 240 min at a controlled temperature (37 °C).

For data set [5], the target named is T3, ROCK1 human recombinant enzyme (Homo sapiens, UniProt Q13464).
T3 construct: purchased EUROFINS-CEREP France (contract assay, study numbers 100033685 and 100040481); host or cells: Sf9 insect cells
In words: ROCK1 inhibition assay (Eurofins-Cerep, phosphorylation of Ulight-RRRSLLE substrate). The data set is classed as biochemical. Here is the method: as §1, §2

[6] abbreviates: screening concentration 3 μM, average of two experiments.

The structures appear in SMILES notation. Entries after “also recorded” stand apart in the source; their conditions may differ.

T1 sequence (O75116 1-543 limits assumed): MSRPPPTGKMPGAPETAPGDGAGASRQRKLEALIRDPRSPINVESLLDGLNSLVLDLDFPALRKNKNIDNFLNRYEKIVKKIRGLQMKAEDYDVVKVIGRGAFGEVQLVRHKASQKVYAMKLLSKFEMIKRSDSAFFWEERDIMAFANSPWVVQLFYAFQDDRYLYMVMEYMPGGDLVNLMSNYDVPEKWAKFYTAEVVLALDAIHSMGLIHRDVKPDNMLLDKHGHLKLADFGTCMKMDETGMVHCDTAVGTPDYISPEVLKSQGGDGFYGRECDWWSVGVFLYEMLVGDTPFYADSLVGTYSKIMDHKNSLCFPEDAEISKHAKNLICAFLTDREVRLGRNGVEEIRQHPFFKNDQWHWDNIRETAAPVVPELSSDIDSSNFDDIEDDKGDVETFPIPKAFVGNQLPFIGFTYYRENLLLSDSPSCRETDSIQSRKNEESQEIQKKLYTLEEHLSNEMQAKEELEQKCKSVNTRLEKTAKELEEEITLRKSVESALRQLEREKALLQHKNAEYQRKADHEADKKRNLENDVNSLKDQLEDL
T3 sequence (Q13464 whole entry): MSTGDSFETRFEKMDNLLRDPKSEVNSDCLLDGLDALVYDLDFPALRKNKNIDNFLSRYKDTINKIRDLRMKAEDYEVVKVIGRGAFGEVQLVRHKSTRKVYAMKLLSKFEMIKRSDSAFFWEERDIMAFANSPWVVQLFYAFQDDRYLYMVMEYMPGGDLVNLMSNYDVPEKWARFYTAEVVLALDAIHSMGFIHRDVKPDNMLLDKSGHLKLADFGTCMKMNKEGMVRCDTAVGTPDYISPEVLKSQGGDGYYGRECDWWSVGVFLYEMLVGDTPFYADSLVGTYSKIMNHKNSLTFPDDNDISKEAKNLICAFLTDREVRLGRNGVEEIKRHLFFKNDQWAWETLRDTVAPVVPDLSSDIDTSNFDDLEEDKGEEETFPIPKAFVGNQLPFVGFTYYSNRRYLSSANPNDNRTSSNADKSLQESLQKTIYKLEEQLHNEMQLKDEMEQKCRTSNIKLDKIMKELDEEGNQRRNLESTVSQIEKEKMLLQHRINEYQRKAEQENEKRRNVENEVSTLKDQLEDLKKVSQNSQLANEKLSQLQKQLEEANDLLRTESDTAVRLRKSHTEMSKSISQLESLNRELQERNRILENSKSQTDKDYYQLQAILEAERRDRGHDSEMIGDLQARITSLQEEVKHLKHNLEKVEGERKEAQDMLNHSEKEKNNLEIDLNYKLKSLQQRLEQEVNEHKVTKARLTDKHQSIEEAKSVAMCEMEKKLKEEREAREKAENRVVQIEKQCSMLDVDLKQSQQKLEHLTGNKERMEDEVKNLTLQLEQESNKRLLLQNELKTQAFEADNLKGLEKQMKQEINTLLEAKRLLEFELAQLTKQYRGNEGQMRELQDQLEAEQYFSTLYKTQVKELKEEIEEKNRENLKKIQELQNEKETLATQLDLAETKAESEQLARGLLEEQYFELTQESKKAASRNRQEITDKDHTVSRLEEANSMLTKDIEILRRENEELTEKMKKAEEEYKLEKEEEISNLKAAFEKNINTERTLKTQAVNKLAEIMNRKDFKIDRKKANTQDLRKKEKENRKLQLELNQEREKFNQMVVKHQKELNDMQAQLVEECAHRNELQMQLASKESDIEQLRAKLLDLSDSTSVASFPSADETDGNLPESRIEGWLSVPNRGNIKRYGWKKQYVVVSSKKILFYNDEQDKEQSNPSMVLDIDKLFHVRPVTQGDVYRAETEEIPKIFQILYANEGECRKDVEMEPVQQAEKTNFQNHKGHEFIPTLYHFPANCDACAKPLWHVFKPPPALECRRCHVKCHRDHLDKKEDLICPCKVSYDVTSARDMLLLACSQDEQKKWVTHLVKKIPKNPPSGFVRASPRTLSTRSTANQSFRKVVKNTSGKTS

The molecule `O=S(=O)(N/N=C/c1ccccc1)c1cccc2cnccc12` [Compound 5b, (E)-N′-benzylideneisoquinoline-5-sulphonohydrazide] registered a melting point of 172 °C. The “effect on cell migration (result in words)” value in data set [1] is on record as “inhibited MDA-MB 231 cell migration; also recorded: effective at inhibiting cell migration”. Moreover, the IC50 in data set [2] (human recombinant ROCK2, five-point assay, 1 to 50 µM, mean of two experiments) was 7.1 µM. Moreover, in data set [2] (setting [6]), the inhibition at 3 µM was found to be 24.2%. Also, in data set [3], the “IKK-β inhibition (result in words)” value is on record as “none of these N-sulphonylhydrazone derivatives was able to inhibit IKK-β”. The “recovery percentage under acidic conditions” value in data set [4] (pH 2, after 30 min of incubation) came out at 64%. Also, the “degradation in neutral medium” value in data set [4] (pH 7.4, after 4 h) was “less than 20%”. The IC50 in data set [5] (human recombinant ROCK1, five-point assay, 1 to 50 µM, mean of two experiments) worked out at 13 µM. Further, in data set [5] (setting [6]), the inhibition at 3 µM was found to be 29%.

As a reminder, the melting point is the temperature of the solid-liquid transition. As a reminder, the IC50 is the point on the concentration scale where inhibition reaches its midpoint. For orientation: inhibition means the relative decrease from the control value, in per cent.
